Test results reported in ChEMBL document CHEMBL1141974, “Inclusion complexes of N-sulfamoyloxazolidinones with beta-cyclodextrin” (Bioorg Med Chem Lett, 2005).

How the values were obtained:
[1] = Relative hydrophobicity enhancement value obtained via beta-cyclodextrin complexation; assay type: ADME
[2] = Partition coefficient (logP) (beta-cyclodextrin complex); assay type: physicochemical; conditions: octanol/water
[3] = Partition coefficient (logP); assay type: physicochemical; conditions: octanol/water

Row | SMILES | delta Log P [1] | logP [2] | logP [3]
1 | CN(c1ccccc1)S(=O)(=O)N1CCOC1=O | 0.78 | -0.22 | 0.56
2 | COc1ccc(NS(=O)(=O)N2CCOC2=O)cc1 | 0.94 | -0.17 | 0.77
3 | O=C1OCCN1S(=O)(=O)Nc1ccc([N+](=O)[O-])cc1 | 0.9 | -0.35 | 0.55

Next, values leading:

Row | delta Log P [1] | logP [2] | logP [3] | SMILES
4 | 0.85 | -0.2 | 0.65 | O=C1OCCN1S(=O)(=O)Nc1ccccc1
5 | 1.01 | 0.1 | 1.12 | Cc1ccc(NS(=O)(=O)N2CCOC2=O)cc1
6 | 0.8 | 0.46 | 1.26 | O=C1OCCN1S(=O)(=O)Nc1ccc(Cl)cc1
